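Exposure lasted 48 hours, with cells grown in 96-well plates and compounds tested at five concentrations. The concentration for 50% growth inhibition is given as GI50.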 Active and inactive are the calls of the source. Cut-off read from the data, not from the text of the source: active = GI50 up to about 1.1 µM and inactive = higher.
How the values were obtained:
Assay in all cases: DTP human tumour cell line panel, 48 h
[1] = system: UO-31
[2] = system: MCF7
[3] = system: CAKI-1
[4] = system: IGROV-1
[5] = system: K562
[6] = system: MOLT-4
[7] = system: M14
[8] = system: SF-295
[9] = system: RPMI-8226
[10] = system: SK-MEL-28
[11] = system: SNB-19
[12] = system: LOX IMVI
[13] = system: NCI-H460
[14] = system: SR
[15] = system: PC-3
[16] = system: MDA-MB-231
[17] = system: A498
[18] = system: OVCAR-3
[19] = system: CCRF-CEM
[20] = system: TK-10

Structure (SMILES) | GI50 [1] | GI50 [2] | GI50 [3] | GI50 [4] | GI50 [5] | GI50 [6] | GI50 [7] | GI50 [8] | GI50 [9] | GI50 [10] | GI50 [11] | GI50 [12] | GI50 [13] | GI50 [14] | GI50 [15] | GI50 [16] | GI50 [17] | GI50 [18] | GI50 [19] | GI50 [20]
O=C1c2cc3c(cc2CC1Br)CCC3 (stereo unspecified) | 10.6 µM (inactive) | 2.07 µM (inactive) | 1.71 µM (inactive) | 2.86 µM (inactive) | 1.39 µM (inactive) | 0.953 µM (active) | 1.45 µM (inactive) | 5.19 µM (inactive) | 1.82 µM (inactive) | 3.1 µM (inactive) | 12.4 µM (inactive) | 0.369 µM (active) | 12.1 µM (inactive) | 0.787 µM (active) | 3.28 µM (inactive) | 4.47 µM (inactive) | 18.1 µM (inactive) | 2.03 µM (inactive) | 0.405 µM (active) | 2.75 µM (inactive)
Nc1ncc(CN2CCOCC2)c(-c2ccccc2O)n1 | > 100 µM (inactive) | > 100 µM (inactive) | > 100 µM (inactive) | > 100 µM (inactive) | > 100 µM (inactive) | > 100 µM (inactive) | > 100 µM (inactive) | > 100 µM (inactive) | > 100 µM (inactive) | > 100 µM (inactive) | – | > 100 µM (inactive) | > 100 µM (inactive) | > 100 µM (inactive) | > 100 µM (inactive) | > 100 µM (inactive) | > 100 µM (inactive) | > 100 µM (inactive) | > 100 µM (inactive) | > 100 µM (inactive)
CCCCN1C(=O)CC2[C@@H]3CCc4cc(OC(C)=O)ccc4C3CC[C@]2(C)C1=O (stereo partly specified) | > 10 µM (inactive) | > 10 µM (inactive) | > 10 µM (inactive) | > 10 µM (inactive) | > 10 µM (inactive) | > 10 µM (inactive) | > 10 µM (inactive) | > 10 µM (inactive) | > 10 µM (inactive) | > 10 µM (inactive) | > 10 µM (inactive) | > 10 µM (inactive) | > 10 µM (inactive) | > 10 µM (inactive) | > 10 µM (inactive) | > 10 µM (inactive) | > 10 µM (inactive) | > 10 µM (inactive) | > 10 µM (inactive) | > 10 µM (inactive)
CN(CCNC(=O)c1cn(C)c2c1ccc1cc(Cl)c(Cl)cc12)CCNC(=O)c1cn(C)c2c1ccc1cc(Cl)c(Cl)cc12 | 1.72 µM (inactive) | 1.96 µM (inactive) | 3.84 µM (inactive) | 1.53 µM (inactive) | 0.535 µM (active) | 0.5 µM (active) | 1.75 µM (inactive) | 2.22 µM (inactive) | 2.65 µM (inactive) | 1.73 µM (inactive) | 2.08 µM (inactive) | 1.74 µM (inactive) | 1.9 µM (inactive) | 0.56 µM (active) | 1.7 µM (inactive) | 1.75 µM (inactive) | 3.82 µM (inactive) | 2.18 µM (inactive) | 1.61 µM (inactive) | 3.71 µM (inactive)
C=C(C(=O)OC1C(CO)OC(OCC2CC[C@@H]3C[C@]4(OC(=O)C3=C)C(C)=CC(=O)C24)C(O)C1O)[C@@H]1CCC(CO)C2C(=O)C=C(C)[C@@]2(O)C1 (stereo partly specified) | 1.76 µM (inactive) | 1.16 µM (inactive) | 1.36 µM (inactive) | 2.79 µM (inactive) | 0.783 µM (active) | 0.693 µM (active) | 2.08 µM (inactive) | 17.1 µM (inactive) | 0.356 µM (active) | 3.34 µM (inactive) | 16.4 µM (inactive) | 2.18 µM (inactive) | 3.3 µM (inactive) | 0.646 µM (active) | 1.54 µM (inactive) | 1.64 µM (inactive) | 2.9 µM (inactive) | 2.02 µM (inactive) | 0.269 µM (active) | 3.07 µM (inactive)
CNC(=O)Nc1nc2cc([N+](=O)[O-])ccc2[nH]1 | > 100 µM (inactive) | > 100 µM (inactive) | 61.4 µM (inactive) | 64.6 µM (inactive) | > 100 µM (inactive) | > 100 µM (inactive) | > 100 µM (inactive) | > 100 µM (inactive) | > 100 µM (inactive) | > 100 µM (inactive) | > 100 µM (inactive) | > 100 µM (inactive) | 7.55 µM (inactive) | 47.1 µM (inactive) | > 100 µM (inactive) | > 100 µM (inactive) | > 100 µM (inactive) | > 100 µM (inactive) | 67.8 µM (inactive) | > 100 µM (inactive)
COc1ccc(N2C(=O)C3c4[nH]c5ccc(Br)cc5c4C4CCC(C(C)(C)C)CC4C3C2=O)cc1 (stereo unspecified) | – | > 100 µM (inactive) | > 100 µM (inactive) | > 100 µM (inactive) | > 100 µM (inactive) | > 100 µM (inactive) | 94.2 µM (inactive) | > 100 µM (inactive) | > 100 µM (inactive) | > 100 µM (inactive) | > 100 µM (inactive) | > 100 µM (inactive) | > 100 µM (inactive) | > 100 µM (inactive) | > 100 µM (inactive) | 82 µM (inactive) | > 100 µM (inactive) | > 100 µM (inactive) | > 100 µM (inactive) | > 100 µM (inactive)
OCCN(CCO)CCn1cnc2c(NCc3ccccc3)ncnc21 | > 100 µM (inactive) | > 100 µM (inactive) | > 100 µM (inactive) | > 100 µM (inactive) | > 100 µM (inactive) | > 100 µM (inactive) | > 100 µM (inactive) | > 100 µM (inactive) | > 100 µM (inactive) | > 100 µM (inactive) | > 100 µM (inactive) | > 100 µM (inactive) | > 100 µM (inactive) | > 100 µM (inactive) | > 100 µM (inactive) | > 100 µM (inactive) | > 100 µM (inactive) | > 100 µM (inactive) | > 100 µM (inactive) | > 100 µM (inactive)
Cc1ccc([S@+]([O-])c2occc2C=O)cc1 | 11.1 µM (inactive) | 3.48 µM (inactive) | 17.1 µM (inactive) | 11.7 µM (inactive) | 1.85 µM (inactive) | 1.79 µM (inactive) | 6.9 µM (inactive) | 17.7 µM (inactive) | 1.91 µM (inactive) | 3.82 µM (inactive) | 5.07 µM (inactive) | 1.81 µM (inactive) | 9.91 µM (inactive) | 1.71 µM (inactive) | 5.02 µM (inactive) | 8.65 µM (inactive) | 17.1 µM (inactive) | 2.81 µM (inactive) | 1.64 µM (inactive) | 14.3 µM (inactive)
C=C(C)c1nc(Oc2ccccc2)nc(Oc2ccccc2)n1 | 17.6 µM (inactive) | 3.08 µM (inactive) | 2.06 µM (inactive) | 9.38 µM (inactive) | 2.23 µM (inactive) | 0.664 µM (active) | 5.42 µM (inactive) | 14.9 µM (inactive) | 1.57 µM (inactive) | 3.86 µM (inactive) | 9.33 µM (inactive) | 2.08 µM (inactive) | 9.04 µM (inactive) | 2.86 µM (inactive) | 14.6 µM (inactive) | 14.1 µM (inactive) | 17.3 µM (inactive) | 6.04 µM (inactive) | 2.54 µM (inactive) | 3.72 µM (inactive)
N=C(N)SCc1ccc(Cl)c2ccccc12.O=[N+]([O-])c1c(O)c(Cl)cc(Cl)c1Cl | 9.98 µM (inactive) | 11.2 µM (inactive) | 5.57 µM (inactive) | 13 µM (inactive) | 4.66 µM (inactive) | 5.09 µM (inactive) | 10.3 µM (inactive) | 11.6 µM (inactive) | 2.64 µM (inactive) | 14.1 µM (inactive) | 14.4 µM (inactive) | 14.4 µM (inactive) | 8.32 µM (inactive) | 5.42 µM (inactive) | 11.9 µM (inactive) | 8.22 µM (inactive) | 9.2 µM (inactive) | 9.18 µM (inactive) | 9.59 µM (inactive) | 7.67 µM (inactive)
CCOC(=O)c1cn2c(n1)sc1cc(F)ccc12 | > 100 µM (inactive) | 46.9 µM (inactive) | > 100 µM (inactive) | > 100 µM (inactive) | > 100 µM (inactive) | > 100 µM (inactive) | 64.4 µM (inactive) | 74.8 µM (inactive) | > 100 µM (inactive) | > 100 µM (inactive) | > 100 µM (inactive) | 80.7 µM (inactive) | > 100 µM (inactive) | 16.1 µM (inactive) | > 100 µM (inactive) | 92.7 µM (inactive) | 30.8 µM (inactive) | > 100 µM (inactive) | > 100 µM (inactive) | > 100 µM (inactive)
Fc1ccc(N2C(=S)SC(=N\c3ccccc3)/C2=N/c2ccccc2)cc1 | > 86.1 µM (inactive) | > 73.8 µM (inactive) | > 100 µM (inactive) | > 43.8 µM (inactive) | 14.9 µM (inactive) | 5.86 µM (inactive) | > 100 µM (inactive) | > 100 µM (inactive) | 32.8 µM (inactive) | > 100 µM (inactive) | > 100 µM (inactive) | > 100 µM (inactive) | > 100 µM (inactive) | 25.1 µM (inactive) | > 16.7 µM (inactive) | > 100 µM (inactive) | > 100 µM (inactive) | 41.6 µM (inactive) | 25.9 µM (inactive) | > 100 µM (inactive)
CCOC(=O)c1nc2ccccc2nc1NCc1cc(OC)c(OC)c(OC)c1 | 24.6 µM (inactive) | 35.6 µM (inactive) | 70.6 µM (inactive) | 53.1 µM (inactive) | 27.8 µM (inactive) | 27.2 µM (inactive) | – | 54.1 µM (inactive) | 25.2 µM (inactive) | 58.3 µM (inactive) | – | 47 µM (inactive) | 28.8 µM (inactive) | 37.8 µM (inactive) | 25.2 µM (inactive) | 27.4 µM (inactive) | 23.9 µM (inactive) | 75.5 µM (inactive) | 39.9 µM (inactive) | > 100 µM (inactive)
